In brackets after ≈: the same amount, converted by molar mass. Where two headings read alike, the source gives them in different places.
Assays:
[1] = Maximum Tolerated Dose (MTD), single oral dose; settings: mice, oral gavage, escalating dose 100, 300 and 500 mg/kg
Experimental: An assay for Maximum Tolerated Dose (MTD) was also utilized. […] Three different concentrations are tested, generally at 100, 300 and 500 mg/kg. The latter dose is about twice to five times the dose used for efficacy testing of the compound in mice. After 7 days of observation the mice are sacrificed and the organs are studied for any adverse effects. In case of abnormalities the organs are fixed in formalin and given for extensive pathology analysis.
Maximum tolerated dosing was performed on these selected compounds. An escalating dose of drug (100, 300 and 500 mg/kg) was given to mice by oral gavage.

[2] = target: UDP-galactose mutase (Glf) (Mycobacterium tuberculosis, UniProt P9WIQ1); test: microtitre plate based screen of Glf (enzymatic inhibition); format: biochemical; settings: in words
[3] = system: M. tuberculosis; format: in vivo, mice; settings: in words
[4] = system: M. tuberculosis H37Ra; test: MIC against M. tuberculosis H37Ra, micro broth dilution in microtiter plates; settings: for MIC activity compared with classical TB drugs (FIG. 1): against H37Ra, in words
[5] = Mycobacterium tuberculosis, H37RA
[6] = Mycobacterium tuberculosis, H37RA, 168 h, read-out: TB MIC, Table 1, M. tuberculosis H37Ra, 7 days, MIC90 (>90% inhibition of growth)
[7] = Mycobacterium tuberculosis, H37RA, Table 5, M. tuberculosis H37Ra, MIC90
[8] = Mycobacterium tuberculosis, H37RA, Table 4, M. tuberculosis H37Ra, MIC90
[9] = Mycobacterium tuberculosis, H37RA, Table 6, M. tuberculosis H37Ra, MIC90

UDP-galactose mutase (Glf), sequence (P9WIQ1 whole entry): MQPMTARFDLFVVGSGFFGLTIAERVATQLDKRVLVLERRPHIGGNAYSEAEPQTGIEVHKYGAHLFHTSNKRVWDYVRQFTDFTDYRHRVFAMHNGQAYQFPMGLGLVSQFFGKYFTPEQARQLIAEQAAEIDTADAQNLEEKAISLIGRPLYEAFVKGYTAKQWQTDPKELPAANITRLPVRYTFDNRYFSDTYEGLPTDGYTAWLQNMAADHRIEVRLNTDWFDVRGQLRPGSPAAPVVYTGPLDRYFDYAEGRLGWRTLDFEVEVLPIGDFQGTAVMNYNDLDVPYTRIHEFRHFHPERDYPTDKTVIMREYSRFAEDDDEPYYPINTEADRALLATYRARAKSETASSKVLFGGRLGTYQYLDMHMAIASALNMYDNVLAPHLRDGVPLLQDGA

SMILES: O=C(Nc1cccc(F)c1)c1ccc([N+](=O)[O-])o1 [Compound 12, 5-Nitro-furan-2-carboxylic acid(3-fluoro-phenyl)-amide]
- maximum tolerated dosing, observed effect [1]: no effect at the maximum dose

SMILES: O=C(Nc1cccc(Cl)c1)c1ccc([N+](=O)[O-])o1 [Compound 10, 5-Nitro-furan-2-carboxylic acid(3-chloro-phenyl)-amide]
- enzymatic inhibition of Glf [2]: best inhibitors of GIf
- maximum tolerated dosing, observed effect [1]: no effect at the maximum dose

SMILES: COc1ccc(CNC(=O)c2ccc([N+](=O)[O-])o2)cc1OC [Compound 23, 5-Nitro-furan-2-carboxylic acid 3,4-dimethoxy-benzylamide]
- maximum tolerated dosing, observed effect [1]: no effect at the maximum dose
- oral activity against M. tuberculosis in the mouse infection model [3]: significant oral activity
- MIC [4, 5]: 200 µg/mL (≈ 653 µM)
- MIC [4, 6]: 0.2 µg/mL (≈ 0.653 µM)
- MIC activity compared with classical TB drugs (FIG. 1) [4]: as active as ethambutol and streptomycin

SMILES: COc1ccc(CN2CCN(C(=O)c3ccc([N+](=O)[O-])o3)CC2)c(OC)c1 [Compound 89]
- MIC [4, 7]: < 0.1 µg/mL

SMILES: O=C(c1ccc([N+](=O)[O-])o1)N1Cc2ccccc2C1 [Compound 71]
- MIC [4, 8]: 0.78 µg/mL (≈ 3.02 µM)

SMILES: CC(C)(C)OC(=O)N1CCN(c2ccc(CNC(=O)c3ccc([N+](=O)[O-])o3)cc2)CC1 [Compound 96, 4-(4-{[(5-Nitro-furan-2-carbonyl)-amino]-methyl}-phenyl)-piperazine-1-carboxylic acid tert-butyl ester]
- MIC [4, 9]: 0.0002 µg/mL (≈ 0.000465 µM)

SMILES: O=C(NCc1cccc(N2CCC(Cc3ccccc3)CC2)c1)c1ccc([N+](=O)[O-])o1 [Compound 70, 5-Nitro-furan-2-carboxylic acid 3-(4-benzyl-piperidin-1-yl)-benzylamide]
- MIC [4, 8]: 0.0062 µg/mL (≈ 0.0148 µM)

SMILES: CCOC(=O)c1ccc(C(=O)Nc2cccc(OC)c2)o1 [Compound 40, 5-(3-Methoxy-phenylcarbamoyl)-furan-2-carboxylic acid ethyl ester]
- MIC [4, 6]: 400 µg/mL (≈ 1380 µM)

SMILES: COc1cccc(NC(=O)c2ccc([N+](=O)[O-])o2)c1 [Compound 13, 5-Nitro-furan-2-carboxylic acid(3-methoxy-phenyl)-amide]
- enzymatic inhibition of Glf [2]: best inhibitors of GIf
- maximum tolerated dosing, observed effect [1]: some pathology at 500 mg/kg

SMILES: COc1cc(CNC(=O)c2ccc([N+](=O)[O-])o2)cc(OC)c1OC [Compound 24, 5-Nitro-furan-2-carboxylic acid 3,4,5-trimethoxy-benzylamide]
- MIC [4, 6]: 0.8 µg/mL (≈ 2.38 µM)

SMILES: COc1ccc(NC(=O)c2ccc([N+](=O)[O-])o2)cc1Cl [Compound 1]
- MIC against whole cells [4]: 1.6 µg/mL (≈ 5.39 µM)

SMILES: O=C(c1ccc([N+](=O)[O-])o1)N1CCN(Cc2cccc(O)c2)CC1 [Compound 83]
- MIC [4, 7]: 0.8 µg/mL (≈ 2.41 µM)

SMILES: O=C(Nc1cnccn1)c1ccc([N+](=O)[O-])o1 [Compound 48, 5-Nitro-furan-2-carboxylic acid pyrazin-2-ylamide]
- MIC [4, 6]: 6.25 µg/mL (≈ 26.7 µM)

SMILES: NC1CCN(c2ccc(CNC(=O)c3ccc([N+](=O)[O-])o3)cc2)C1 (centres unmarked) [Compound 95, 5-Nitro-furan-2-carboxylic acid 4-(3-amino-pyrrolidin-1-yl)-benzylamide]
- MIC [4, 9]: 0.8 µg/mL (≈ 2.42 µM)

SMILES: O=C(NCc1ccc(N2CCNCC2)cc1)c1ccc([N+](=O)[O-])o1 [Compound 97, 5-Nitro-furan-2-carboxylic acid 4-piperazin-1-yl-benzylamide]
- MIC [4, 9]: 0.8 µg/mL (≈ 2.42 µM)

SMILES: CC[C@@H](CO)NCCN[C@@H](CC)CO [ethambutol, reference compound]
- MIC90 [4, 5]: 0.78 µg/mL (≈ 3.82 µM)

SMILES: CC(=O)c1ccc(N2CCN(C(=O)c3ccc([N+](=O)[O-])o3)CC2)cc1 [Compound 91]
- MIC [4, 7]: < 10.1 µg/mL

SMILES: O=C(NCc1ccc(N2CCSCC2)c(F)c1)c1ccc([N+](=O)[O-])o1 [Compound 101, 5-Nitro-furan-2-carboxylic acid 3-fluoro-4-thiomorpholin-4-yl-benzylamide]
- MIC [4, 9]: 0.2 µg/mL (≈ 0.547 µM)

SMILES: O=C(c1ccc([N+](=O)[O-])o1)N1CCN(Cc2ccccc2)CC1 [Compound 73]
- MIC [4, 7]: 0.59 µg/mL (≈ 1.87 µM)

SMILES: CC(C)NC(=O)N1CCN(c2ccc(CNC(=O)c3ccc([N+](=O)[O-])o3)cc2)CC1 [Compound 106, 4-(4-{[(5-Nitro-furan-2-carbonyl)-amino]-methyl}-phenyl)-piperazine-1-carboxylic acid isopropylamide]
- MIC [4, 9]: 0.0062 µg/mL (≈ 0.0149 µM)

SMILES: NNC(=O)c1ccncc1 [Isoniazid, isoniazid, reference compound]
- MIC90 [4, 5]: 0.05 µg/mL (≈ 0.365 µM)

SMILES: O=C(NCc1ccc(N2CCN(Cc3ccccc3)CC2)cc1)c1ccc([N+](=O)[O-])o1 [Compound 66, 5-Nitro-furan-2-carboxy1ic acid 4-(4-benzyl-piperazin-1-yl)-benzylamide]
- MIC [4, 5]: 0.006 µg/mL (≈ 0.0143 µM)
- MIC [4, 8]: 0.0062 µg/mL (≈ 0.0147 µM)
- MIC activity compared with classical TB drugs (FIG. 1) [4]: more active than isoniazid

SMILES: O=C(c1ccc([N+](=O)[O-])o1)N1CCC(O)(Cc2ccccc2)CC1 [Compound 79]
- MIC [4, 7]: 1.56 µg/mL (≈ 4.72 µM)

SMILES: O=C(NCc1ccc(N2CCSCC2)cc1)c1ccc([N+](=O)[O-])o1 [Compound 92, 5-Nitro-furan-2-carboxylic acid 4-thiomorpholin-4-yl-benzylamide]
- MIC [4, 9]: 0.05 µg/mL (≈ 0.144 µM)

SMILES: O=C(c1ccc([N+](=O)[O-])o1)N1CCN(Cc2cccc(OCc3ccccc3)c2)CC1 [Compound 87]
- MIC [4, 7]: 1.56 µg/mL (≈ 3.7 µM)

SMILES: O=C(NCc1ccc2c(c1)OCO2)c1ccc([N+](=O)[O-])o1 [Compound 74]
- MIC [4, 7]: 0.15 µg/mL (≈ 0.517 µM)

SMILES: CN1CCN(c2cccc(CNC(=O)c3ccc([N+](=O)[O-])o3)c2)CC1 [Compound 68, 5-Nitro-furan-2-carboxylic acid 3-(4-methyl-piperazin-1-yl)-benzylamide]
- MIC [4, 8]: 3.1 µg/mL (≈ 9 µM)

SMILES: O=C(NCc1ccc(N2CCOCC2)cc1)c1ccc([N+](=O)[O-])o1 [Compound 64, 5-Nitro-furan-2-carboxylic acid 4-morpholin-4-yl-benzylamide]
- MIC [4, 8]: 0.1 µg/mL (≈ 0.302 µM)

SMILES: COc1cc2c(cc1OC)CN(C(=O)c1ccc([N+](=O)[O-])o1)CC2 [Compound 75]
- MIC [4, 7]: 0.15 µg/mL (≈ 0.451 µM)

SMILES: O=C(NC1CCc2ccccc21)c1ccc([N+](=O)[O-])o1 (centres unmarked) [Compound 26, 5-Nitro-furan-2-carboxylic acid indan-1-ylamide]
- MIC [4, 6]: 3.1 µg/mL (≈ 11.4 µM)

SMILES: COc1cccc(NC(=O)c2ccc(S(=O)(=O)c3ccccc3)o2)c1 [Compound 39, 5-Benzenesulfonyl-furan-2-carboxylic acid(3-methoxy-phenyl)-amide]
- MIC [4, 6]: 6.25 µg/mL (≈ 17.5 µM)

SMILES: O=C(c1ccc([N+](=O)[O-])o1)N1CCN(c2ncccn2)CC1 [Compound 77]
- MIC ([4]; Table 5, M. tuberculosis H37Ra, MIC90): 0.025 µg/mL (≈ 0.0824 µM)

SMILES: O=C(NCc1ccc(N2CCN(CC3CC3)CC2)cc1)c1ccc([N+](=O)[O-])o1 [Compound 98, 5-Nitro-furan-2-carboxylic acid 4-(4-cyclopropylmethyl-piperazin-1-yl)-benzylamide]
- MIC [4, 9]: 0.05 µg/mL (≈ 0.13 µM)

SMILES: O=C(NC1CCCCC1)c1ccc([N+](=O)[O-])o1 [Compound 15, 5-Nitro-furan-2-carboxylic acid cyclohexylamide]
- MIC [4, 6]: 3.1 µg/mL (≈ 13 µM)

SMILES: COc1ccccc1CNC(=O)c1ccc([N+](=O)[O-])o1 [Compound 52, 5-nitro-furan-2-carboxylic acid 2-methoxy-benzylamide]
- MIC [4, 6]: 1.6 µg/mL (≈ 5.79 µM)

SMILES: COc1ccccc1N1CCN(C(=O)c2ccc([N+](=O)[O-])o2)CC1 [Compound 82]
- MIC [4, 7]: 1.56 µg/mL (≈ 4.71 µM)
